According to US11053196B2, “Substituted indoline derivatives as dengue viral replication inhibitors” (JANSSEN PHARMACEUTICALS, INC., priority 2017, dated 2021):
pEC50: −log10 of the molar value.

Tests used:
DENV-2 16681 strain = experiment: DENV-2 antiviral assay (eGFP-labeled virus in Vero cells); type: cell-based, Dengue virus; details: DENV-2 16681 eGFP, MOI 0.5, 3 days
Protocol: The antiviral activity of all the compounds of the invention was tested against the DENV-2 16681 strain which was labeled with enhanced green fluorescent protein (eGPF). The culture medium consists of minimal essential medium supplemented with 2% of heat-inactivated fetal calf serum, 0.04% gentamycin (50 mg/mL) and 2 mM of L-glutamine. Vero cells, obtained from ECACC, were suspended in culture medium and 25 μL was added to 384-well plates (2500 cells/well), which already contain the antiviral compounds. Typically, these plates contain a 5-fold serial dilution of 9 dilution steps of the test compound at 200 times the final concentration in 100% DMSO (200 nL). […] Finally, each plate contains wells which are assigned as virus controls (containing cells and virus in the absence of compound), cell controls (containing cells in the absence of virus and compound) and medium controls (containing medium in the absence of cells, virus and compounds). To the wells assigned as medium control, 25 μL of culture medium was added instead of Vero cells. Once the cells are added to the plates, the plates were incubated for 30 minutes at room temperature to allow the cells to distribute evenly within the wells. Next, the plates were incubated in a fully humidified incubator (37° C., 5% CO2) until the next day. Then, DENV-2 strain 16681, labeled with eGFP, was added at a multiplicity of infection (MOI) of 0.5.
Therefore, 15 μL of virus suspension was added to all the wells containing test compound and to the wells assigned as virus control. In parallel, 15 μL of culture medium was added to the medium and cell controls. Next, the plates were incubated for 3 days in a fully humidified incubator (37° C., 5% CO2). At the day of the read out, the eGFP fluorescence was measured using an automated fluorescence microscope at 488 nm (blue laser). Using an in-house LIMS system, inhibition dose response curves for each compound were calculated and the half maximal effective concentration (EC50) was determined. Therefore, the percent inhibition (I) for every test concentration is calculated using the following formula: I=100*(ST−SCC)/(SVC−SCC); ST, SCC and SVC are the amount of eGFP signal in the test compound, cell control and virus control wells, respectively. The EC50 represents the concentration of a compound at which the virus replication is inhibited with 50%, as measured by a 50% reduction of the eGFP fluorescent intensity compared to the virus control. The EC50 is calculated using linear interpolation (Table 1).

DENV-1 strain TC974#666 = experiment: Tetravalent RT-qPCR assay, serotype 1; type: cell-based; details: Dengue virus, DENV1, 72 h; RT-qPCR serotype 1 TC974#666, Vero cells, day 3
Protocol: (§1) The antiviral activity of the compounds of the invention was tested against DENV-1 strain TC974#666 (NCPV), DENV-2 strain 16681, DENV-3 strain H87 (NCPV) and DENV-4 strain H241 (NCPV) in a RT-qPCR assay. Therefore, Vero cells were infected with either DENV-1, or -2, or -3, or -4 in the presence or absence of test compounds. At day 3 post-infection, the cells were lysed and cell lysates were used to prepare cDNA of both a viral target (the 3′UTR of DENV; Table 2) and a cellular reference gene (1-actin, Table 2). Subsequently, a duplex real time PCR was performed on a Lightcycler480 instrument. The generated Cp value is inversely proportional to the amount of RNA expression of these targets. Inhibition of DENV replication by a test compound results in a shift of Cp's for the 3′UTR gene. On the other hand, if a test compound is toxic to the cells, a similar effect on 1-actin expression will be observed. The comparative ΔΔCp method is used to calculate EC50, which is based on the relative gene expression of the target gene (3′UTR) normalized with the cellular housekeeping gene (1-actin). In addition, CC50 values are determined based on the C, values acquired for the housekeeping gene β-actin.
(§2) The culture medium consisted of minimal essential medium supplemented with 2% of heat-inactivated fetal calf serum, 0.04% gentamycin (50 mg/mL) and 2 mM of L-glutamine. Vero cells, obtained from ECACC, were suspended in culture medium and 75 μL/well was added in 96-well plates (10000 cells/well), which already contain the antiviral compounds. […] In addition, each plate contains wells which are assigned as virus controls (containing cells and virus in the absence of compound) and cell controls (containing cells in the absence of virus and compound). Once the cells were added in the plates, the plates were incubated in a fully humidified incubator (37° C., 5% CO2) until the next day. Dengue viruses serotype-1, 2, 3 and 4 were diluted in order to obtain a Cp of ˜22-24 in the assay. Therefore, 25 μL of virus suspension was added to all the wells containing test compound and to the wells assigned as virus control. In parallel, 25 μL of culture medium was added to the cell controls. Next, the plates were incubated for 3 days in a fully humidified incubator (37° C., 5% CO2). After 3 days, the supernatant was removed from the wells and the cells were washed twice with ice-cold PBS (−100 μL). The cell pellets within the 96-well plates were stored at −80° C. for at least 1 day. Next, RNA was extracted using the Cells-to-CT™ lysis kit, according to the manufacturer's guideline (Life Technologies). The cell lysates can be stored at −80° C. or immediately used in the reverse transcription step.
(§3) In preparation of the reverse transcription step, mix A (table 3A) was prepared and 7.57 μL/well was dispensed in a 96-well plate. After addition of 5 μL of the cell lysates, a five minute denaturation step at 75° C. was performed (table 3B). Afterwards, 7.43 μL of mix B was added (table 3C) and the reverse transcription step was initiated (table 3D) to generate cDNA.
(§4) Finally, a RT-qPCR mix was prepared, mix C (table 4A), and 22.02 μL/well was dispensed in 96-well LightCycler qPCR plates to which 3 μL of cDNA was added and the qPCR was performed according to the conditions in table 4B on a LightCycler 480.
(§5) Using the LightCycler software and an in-house LIMS system, dose response curves for each compound were calculated and the half maximal effective concentration (EC50) and the half maximal cytotoxic concentration (CC50) were determined (Tables 5-8).

DENV-2 strain 16681 = experiment: Tetravalent RT-qPCR assay, serotype 2; type: cell-based; details: Dengue virus, DENV2, 72 h; RT-qPCR serotype 2 16681, Vero cells, day 3
Protocol: as §1, §2, §3, §4, §5

DENV-3 strain H87 = experiment: Tetravalent RT-qPCR assay, serotype 3; type: cell-based; details: Dengue virus, DENV3, 72 h; RT-qPCR serotype 3 H87, Vero cells, day 3
Protocol: as §1, §2, §3, §4, §5

DENV-4 strain H241 = experiment: Tetravalent RT-qPCR assay, serotype 4; type: cell-based; details: Dengue virus, DENV4, 72 h; RT-qPCR serotype 4 H241, Vero cells, day 3
Protocol: as §1, §2, §3, §4, §5

in vitro = type: cell-based; details: African green monkey
Protocol: as §1, with “The comparative ΔΔCp method is used to calculate EC50, which is based on the relative gene expression of the target gene (3′UTR) normalized with the cellular housekeeping gene (1-actin).” left out, “β-actin. […]” for “β-actin.”
as §5

Vero cells = details: African green monkey

`COc1cc(NC(C(=O)N2CCc3ccc(OC(F)(F)F)cc32)c2ccc(F)cc2OC)cc(OCCCC(=O)O)c1` (single isomer, unassigned) [Compound 6B, 4-(3-((1-(4-fluoro-2-methoxyphenyl)-2-oxo-2-(6-(trifluoromethoxy)indolin-1-yl)ethyl)amino)-5-methoxyphenoxy)butanoic acid] gave a pEC50 (DENV-2 16681 strain) of 9.41, a pEC50 (DENV-1 strain TC974#666) of 9.19 and a pEC50 (DENV-2 strain 16681) of 9.39. For the same compound, the pEC50 (DENV-3 strain H87) was 8.25, the pEC50 (DENV-4 strain H241) was 7.54 and the CC50 at 3 days (in vitro) was 13000 nM. It also gave a CC50 (Vero cells) of 15000 nM.
